The compounds below were run against T1, human glucocorticoid receptor (GR) complex (Homo sapiens, UniProt P04150) (assay: Glucocorticoid Receptor Competitive Binding Assay (fluorescence polarization, TAMRA-labeled dexamethasone probe)). Conditions: qualitative statement; competition with TAMRA-labeled dexamethasone.
T1 construct: made in house; host or cells: insect expression system (baculovirus lysate)
T1 sequence (P04150 1-777): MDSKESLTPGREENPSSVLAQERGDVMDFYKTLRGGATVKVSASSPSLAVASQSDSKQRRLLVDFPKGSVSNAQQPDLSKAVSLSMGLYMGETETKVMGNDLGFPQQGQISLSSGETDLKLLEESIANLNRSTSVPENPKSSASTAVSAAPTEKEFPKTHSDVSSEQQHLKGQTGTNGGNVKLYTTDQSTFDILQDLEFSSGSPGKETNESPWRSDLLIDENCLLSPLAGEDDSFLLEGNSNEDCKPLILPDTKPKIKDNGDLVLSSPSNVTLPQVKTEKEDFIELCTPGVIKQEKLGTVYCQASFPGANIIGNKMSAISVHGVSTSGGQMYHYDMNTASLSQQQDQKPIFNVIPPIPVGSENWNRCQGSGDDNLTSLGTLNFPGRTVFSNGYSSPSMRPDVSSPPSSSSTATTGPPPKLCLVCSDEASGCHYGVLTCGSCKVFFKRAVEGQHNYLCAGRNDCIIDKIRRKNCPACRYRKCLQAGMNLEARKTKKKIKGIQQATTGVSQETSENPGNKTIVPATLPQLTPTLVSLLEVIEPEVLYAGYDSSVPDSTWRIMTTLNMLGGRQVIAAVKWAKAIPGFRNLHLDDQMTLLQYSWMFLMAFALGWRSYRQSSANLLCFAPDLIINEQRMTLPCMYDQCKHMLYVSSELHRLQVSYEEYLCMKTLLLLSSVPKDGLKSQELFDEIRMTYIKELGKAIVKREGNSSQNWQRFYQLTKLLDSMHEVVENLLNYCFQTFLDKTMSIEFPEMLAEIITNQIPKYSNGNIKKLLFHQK
Protocol: Compounds of the invention were evaluated for binding to the steroid receptor by a fluorescence polarization competitive binding assay.
A. Glucocorticoid Receptor Competitive Binding Assay
Step 1. Characterization of the Fluorescent Probe
The wavelengths for maximum excitation and emission of the fluorescent probe should first be measured. An example of such a probe is rhodamine (TAMRA)-labeled dexamethasone.
The affinity of the probe for the steroid receptor was then determined in a titration experiment. The fluorescence polarization value of the probe in assay buffer was measured on an SLM-8100 fluorometer using the excitation and emission maximum values described above. Aliquots of expression vector lysate were added and fluorescence polarization was measured after each addition until no further change in polarization value was observed. Non-linear least squares regression analysis was used to calculate the dissociation constant of the probe from the polarization values obtained for lysate binding to the probe.
Step 2. Screening for Inhibitors of Probe Binding
This assay uses fluorescence polarization (FP) to quantitate the ability of test compounds to compete with tetramethyl rhodamine (TAMRA)-labeled dexamethasone for binding to a human glucocorticoid receptor (GR) complex prepared from an insect expression system. The assay buffer was: 10 mM TES, 50 mM KCl, 20 mM Na2MoO4. 2H2O, 1.5 mM EDTA, 0.04% w/v CHAPS, 10% v/v glycerol, 1 mM dithiothreitol, pH 7.4. Test compounds were dissolved to 1 mM in neat DMSO and then further diluted to 10× assay concentration in assay buffer supplemented with 10% v/v DMSO. Test compounds were serially diluted at 10× assay concentrations in 10% DMSO-containing buffer in 96-well polypropylene plates. […] Positive controls were reaction mixtures containing no test compound; negative controls (blanks) were reaction mixtures containing 0.7 μM to 2 μM dexamethasone. […] IC50 values were determined by iterative non-linear curve fitting of the FP signal data to a 4-parameter logistic equation.

activity in the GR binding assay	Compound
potent activity	CC(C)(CC(O)(Cc1[nH]c2ccccc2c1C#N)C(F)(F)F)c1cccc2c1OCC2 (stereo not shown)
potent activity	COc1c(C(C)(C)CC(O)(Cc2cc3ccccc3[nH]2)C(F)(F)F)ccc2ccccc12 (stereo not shown) [1,1,1-Trifluoro-2-(1H-indol-2-ylmethyl)-4-(1-methoxynaphthalen-2-yl)-4-methylpentan-2-ol]
potent activity	COc1ccc(C(C)(C)CC(O)(Cc2cc3ccccc3[nH]2)C(F)(F)F)cc1 (stereo not shown) [1,1,1-Trifluoro-2-(1H-indol-2-ylmethyl)-4-(4-methoxyphenyl)-4-methylpentan-2-ol]
potent activity	CC(C)(CC(O)(Cc1cc2ccccc2[nH]1)C(F)(F)F)c1ccc2ccccc2c1 (stereo not shown) [1,1,1-Trifluoro-2-(1H-indol-2-ylmethyl)-4-methyl-4-naphthalen-2-ylpentan-2-ol]
potent activity	Cc1ccc(C(C)(C)CC(O)(Cc2cc3ccccc3[nH]2)C(F)(F)F)cc1 (stereo not shown) [1,1,1-Trifluoro-2-(1H-indol-2-ylmethyl)-4-methyl-4-p-tolylpentan-2-ol]
potent activity	CC(C)(CC(O)(Cc1cc2ccccc2[nH]1)C(F)(F)F)c1ccccc1 (stereo not shown) [1,1,1-Trifluoro-2-(1H-indol-2-ylmethyl)-4-methyl-4-phenylpentan-2-ol]
potent activity	CC(C)(CC(O)(Cc1cc2ccccc2[nH]1)C(F)(F)F)c1ccsc1 (stereo not shown) [1,1,1-Trifluoro-2-(1H-indol-2-ylmethyl)-4-methyl-4-thiophen-3-ylpentan-2-ol]
potent activity	COc1ccc(F)cc1C(C)(C)CC(O)(Cc1cc2cc(F)ccc2[nH]1)C(F)(F)F (stereo not shown) [1,1,1-Trifluoro-2-(5-fluoro-1H-indol-2-ylmethyl)-4-(5-fluoro-2-methoxyphenyl)-4-methylpentan-2-ol]
potent activity	COc1ccc(F)cc1C(C)(C)CC(O)(Cc1nc2ccc(F)cc2[nH]1)C(F)(F)F (stereo not shown) [1,1,1-Trifluoro-2-(6-fluoro-1H-benzoimidazol-2-ylmethyl)-4-(5-fluoro-2-methoxyphenyl)-4-methylpentan-2-ol]
potent activity	CC(C)(CC(O)(Cc1cc2cccc(F)c2[nH]1)C(F)(F)F)c1ccccc1 (stereo not shown) [1,1,1-Trifluoro-2-(7-fluoro-1H-indol-2-ylmethyl)-4-methyl-4-phenylpentan-2-ol]
potent activity	COc1c(C(C)(C)CC(O)(Cc2ccnc3ccccc23)C(F)(F)F)ccc2ccccc12 (stereo not shown) [1,1,1-Trifluoro-4-(1-methoxynaphthalen-2-yl)-4-methyl-2-quinolin-4-ylmethylpentan-2-ol]
potent activity	CC(C)(CC(O)(Cc1cc2ccccc2[nH]1)C(F)(F)F)c1cccc(F)c1 (stereo not shown) [1,1,1-Trifluoro-4-(3-fluorophenyl)-2-(1H-indol-2-ylmethyl)-4-methylpentan-2-ol]
potent activity	CC(C)(CC(O)(Cc1cc2ccncc2[nH]1)C(F)(F)F)c1cccc(F)c1 (stereo not shown) [1,1,1-Trifluoro-4-(3-fluorophenyl)-4-methyl-2-(1H-pyrrolo[2,3-c]pyridin-2-ylmethyl)pentan-2-ol]
potent activity	CC(C)(CC(O)(Cc1cc2cnccc2[nH]1)C(F)(F)F)c1cccc(F)c1 (stereo not shown) [1,1,1-Trifluoro-4-(3-fluorophenyl)-4-methyl-2-(1H-pyrrolo[3,2-c]pyridin-2-ylmethyl)pentan-2-ol]
potent activity	COc1cccc(C(C)(C)CC(O)(Cc2cc3cc(C(F)(F)F)ccc3[nH]2)C(F)(F)F)c1 (stereo not shown) [1,1,1-Trifluoro-4-(3-methoxyphenyl)-4-methyl-2-(5-trifluoromethyl-1H-indol-2-ylmethyl)pentan-2-ol]
potent activity	CC(C)(CC(O)(Cc1ccnc2cc(F)ccc12)C(F)(F)F)c1ccc(F)cc1 (stereo not shown) [1,1,1-Trifluoro-4-(4-fluorophenyl)-2-(7-fluoroquinolin-4-ylmethyl)-4-methylpentan-2-ol]
